# Results published in patent US20060089375A1, “Pyrazolo[3,4-b] pyridine compounds, and their use as phosphodiesterase inhibitors” (priority 2002, published 2006).
# Target: T1, PDE4B (human recombinant) (Homo sapiens, UniProt Q07343)
# T1 construct: made in house
# Assay: Inhibition of PDE4B activity: radioactive SPA or IMAP Fluorescence Polarisation (FP) assay
# Format: biochemical
# Details: PDE4B inhibitory activity, one reading or average of ca. 2-6 readings, read-out: PDE4B pIC50 (± about 0.5) (converted)
# Method in brief: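 SPA: yeast-expressed human recombinant PDE4B was preincubated with compound for 10–30 min at ambient temperature in Tris pH 7.5 with MgCl2, EGTA and BSA, then run 1 h with ~10 nM [3H]cAMP at ≤20% hydrolysis; 10 concentrations (1.5 nM–30 μM) gave pIC50. IMAP FP: Tris pH 7.2 with ~40 nM fluorescein-cAMP, under linear enzyme conditions.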
# T1 sequence (Q07343 1-564 isoform Q07343-2): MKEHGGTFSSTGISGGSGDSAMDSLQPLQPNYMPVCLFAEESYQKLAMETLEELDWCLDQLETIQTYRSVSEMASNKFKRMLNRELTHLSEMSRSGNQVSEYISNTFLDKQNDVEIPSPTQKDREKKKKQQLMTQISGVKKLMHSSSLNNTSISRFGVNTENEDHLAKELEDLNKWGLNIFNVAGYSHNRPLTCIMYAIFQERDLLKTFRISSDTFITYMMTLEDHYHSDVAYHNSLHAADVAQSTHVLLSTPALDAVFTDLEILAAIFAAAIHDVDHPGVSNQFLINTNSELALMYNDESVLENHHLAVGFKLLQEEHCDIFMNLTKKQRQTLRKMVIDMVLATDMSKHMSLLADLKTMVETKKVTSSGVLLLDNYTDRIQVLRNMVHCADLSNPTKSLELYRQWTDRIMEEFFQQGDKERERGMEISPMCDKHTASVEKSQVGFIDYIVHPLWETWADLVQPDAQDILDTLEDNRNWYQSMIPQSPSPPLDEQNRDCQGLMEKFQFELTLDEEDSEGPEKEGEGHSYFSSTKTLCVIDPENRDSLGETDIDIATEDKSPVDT
row,IC50 [µM],Structure (SMILES)
1,0.0126,"CCn1ncc2c(NC3CCOCC3)c(C(=O)Nc3ccc(F)cc3)cnc21 [Example 22, 1-Ethyl-N-(4-fluorophenyl)-4-(tetrahydro-2H-pyran-4-ylamino)-1H-pryazolo[3,4-b]pyridine-5-carboxamide]"
2,0.0126 to 0.1,"CCNC(=O)c1cnc2c(cnn2CC)c1NC1CCOCC1 [Example 83, 1-Ethyl-N-ethyl-4-(tetrahydro-2H-pyran-4-ylamino)-1H-pyrazolo[3,4-b]pyridine-5-carboxamide]"
3,0.0001 to 0.00631,"CCn1ncc2c(NC3CCOCC3)c(C(=O)NCc3ccc(C(F)(F)F)cc3)cnc21 [Example 155, 1-Ethyl-4-(tetrahydro-2H-pyran-4-ylamino)-N-[4-(trifluoromethyl)benzyl]-1H-pyrazolo[3,4-b]pyridine-5-carboxamide]"
